Test results as given in EP1458697B1, “BIPHENYLMETHYL-THIAZOLIDINEDIONES AND ANALOGUES AND THEIR USE AS PPAR-GAMMA ACTIVATORS” (Galderma Research & Development, S.N.C., priority 2001, dated 2003).

How the values were obtained:
[1] = biological target: T1, récepteur chimère Gal-PPARα (Homo sapiens, UniProt Q07869); test: Transactivation test, same protocol with chimeric receptor Gal-PPARα; assay type: cell-based; settings: Hela cells; for activation at 1 µM: 24 h, compound at 1 microM, percent of activation relative to reference agonist (Wy 14643 = 100%), read-out: % d'activation (à 1 microM) PPARα; for AC50: concentration giving 50% activation relative to reference agonist, read-out: AC50 (en nM) PPARα
T1 sequence (Q07869 167-468): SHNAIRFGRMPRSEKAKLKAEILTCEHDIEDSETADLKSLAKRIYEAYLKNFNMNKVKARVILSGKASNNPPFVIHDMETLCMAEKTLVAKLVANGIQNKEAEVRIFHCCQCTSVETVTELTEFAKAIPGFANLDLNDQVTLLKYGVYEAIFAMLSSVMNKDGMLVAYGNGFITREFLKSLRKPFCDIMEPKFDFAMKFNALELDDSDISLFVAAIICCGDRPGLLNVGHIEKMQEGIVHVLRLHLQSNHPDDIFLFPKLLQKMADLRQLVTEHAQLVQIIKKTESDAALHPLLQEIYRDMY
Description: De préférence, l'activateur des récepteurs de type PPARγ est spécifique, c'est à dire qu'il présente un rapport du pourcentage d'activation des récepteurs PPARγ, au pourcentage d'activation des récepteurs PPARα (calculé par rapport à un composé de référence, le Wy 14643, activant les PPARα de 100%) supérieur ou égal à 3. De préférence, ce rapport est supérieur ou égal à 5 et plus avantageusement supérieur ou égal à 10.
(§1) La capacité des molécules à activer et/ou inhiber les récepteurs PPARγ est évaluée à partir de cellules Hela transfectées de manière stable avec le récepteur chimère Gal-PPARγ (LBD).
(§2) Des plaques 96 puits sont ensemencées à raison de 10 000 cellules /100 µl / puit dans du milieu DMEM 10% SDL puis placées 24 heures à 37°C, 7% CO2.
(§3) Pour déterminer l'activité agoniste PPARγ, les cellules sont ensuite traitées par ajout de 5 µl puit des molécules à tester à la concentration finale de 1 µM. Des cellules sont également traitées en parallèle avec un agoniste de référence, l'acide (-)-3-{4-[2-(Benzooxazol-2-yl-methyl-amino)-ethoxy]-phenyl}-2-ethoxy-propionique, 1 µM.
(§4) Après une nouvelle incubation de 24 heures à 37°C, 7% CO2, un dosage de la luciférase est effectué à l'aide du kit « Steady-Glo Luciferase Assay System » de Promega. Le comptage de la luminescence se fait sur un lecteur de microplaque Microbéta Trilux (Wallac).
(§5) L'activité agoniste du produit testé sera exprimée en pourcentage d'activation par rapport au témoin agoniste l'agoniste de référence à 1 µM.
En appliquant ce même protocole avec le récepteur chimère Gal-PPARα, on peut mesurer l'activité agoniste des composés vis à vis des récepteurs PPAR alpha et ainsi la comparer avec celui du récepteur PPARγ.
(§6) L'AC50, exprimée en nM, est déterminée comme la concentration permettant d'obtenir 50% d'activation du signal basal par rapport à l'agoniste de référence.

[2] = biological target: T2, récepteur chimère Gal-PPARγ (LBD) (Homo sapiens, UniProt P37231); test: Transactivation test, Hela cells stably transfected with chimeric receptor Gal-PPARγ (LBD), luciferase readout; assay type: cell-based; settings: M-HeLa, 24 h, compound at 1 microM, percent of activation relative to reference agonist at 1 µM, read-out: % d'activation (à 1 microM) PPARγ
T2 construct: le récepteur chimère Gal-PPARγ (LBD); Gal (fusion partner); expressed in transfected cells; host or cells: HeLa cells, stably transfected
T2 sequence (P37231 238-503 limits assumed): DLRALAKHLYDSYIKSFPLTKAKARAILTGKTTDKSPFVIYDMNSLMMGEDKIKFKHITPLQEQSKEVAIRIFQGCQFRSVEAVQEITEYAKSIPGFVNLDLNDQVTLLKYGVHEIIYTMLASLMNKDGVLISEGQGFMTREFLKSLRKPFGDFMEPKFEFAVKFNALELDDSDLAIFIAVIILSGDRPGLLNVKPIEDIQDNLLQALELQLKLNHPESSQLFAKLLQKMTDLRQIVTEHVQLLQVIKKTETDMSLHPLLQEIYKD
Protocol: L'activité agoniste vis à vis des récepteurs PPARγ des composés selon l'invention peut être évaluée par des tests de transactivation.
as §1, §2, §3, §4, §5, §6

activation at 1 µM [1]	AC50 [1]	activation at 1 µM [2]	Compound
22.3%	> 50000 nM		COC(=O)c1ccc(C(=O)N(C)Cc2cccc(-c3ccc(CC4SC(=O)NC4=O)cc3)c2)cc1 (centres unmarked) [Composé de l'exemple 3, N-[4'-(2,4-Dioxo-thiazolidin-5-ylmethyl)-biphenyl-3-ylmethyl]-N-methyl-terephthalamatede méthyle]
11.9%		90%	CCO[C@@H](Cc1ccc(-c2cccc(CN(C)C(=O)c3ccc4cc(OCOCCOC)ccc4c3)c2)cc1)C(=O)O [Composé de l'exemple 23, Acide (S)-2-Ethoxy-3-{3'-[({1-[6-(2-methoxy-ethoxymethoxy)-naphthalen-2-yl]-methanoyl}-methyl-amino)-methyl]-biphenyl-4-yl}-propionique]
7.9%	> 50000 nM		CN(Cc1cccc(-c2ccc(CC3SC(=O)NC3=O)cc2)c1)C(=O)c1ccc2ccccc2c1 (centres unmarked) [Composé de l'exemple 6, N-[4'-(2,4-dioxo-thiazolidin-5-ylmethyl)-biphenyl-3-ylmethyl]-N-methyl-naphthalene-2-carboxamide]
37.8%		97.2%	CN(Cc1cccc(-c2ccc(CC3SC(=O)NC3=O)cc2)c1)C(=O)COc1ccccc1 (centres unmarked) [Composé de l'exemple 7, N-[4'-(2,4-Dioxo-thiazolidin-5-ylmethyl)-biphenyl-3-ylmethyl]-N-methyl-2-phenoxy-acetamide]
-4.2%		104%	CN(C(=O)Nc1ccc2ccccc2c1)c1cccc(-c2ccc(CC3SC(=O)NC3=O)cc2)c1 (centres unmarked) [Composé de l'exemple 21, 1-[4'-(2,4-Dioxo-thiazolidin-5-ylmethyl)-biphenyl-3-yl]-1-methyl-3-naphthalen-2-yl-urée]
13.2%	> 50000 nM	90.1%	CN(Cc1cccc(-c2ccc(CC3SC(=O)NC3=O)cc2)c1)C(=O)c1cc2ccccc2s1 (centres unmarked) [Composé de l'exemple 11, N-[4'-(2,4-dioxo-thiazolidin-5-ylmethyl)-biphenyl-3-ylmethyl]-N-methyl-benzo[b]thiophene-2-carboxamide]
26.6%	> 50000 nM		CN(Cc1cccc(-c2ccc(CC3SC(=O)NC3=O)cc2)c1)C(=O)c1cccc2ccccc12 (centres unmarked) [Composé de l'exemple 5, N-[4'-(2,4-dioxo-thiazolidin-5-ylmethyl)-biphenyl-3-ylmethyl]-N-methyl-naphthalene-1-carboxamide]
28.8%	> 50000 nM	102%	CN(Cc1cccc(-c2ccc(CC3SC(=O)NC3=O)cc2)c1)C(=O)c1ccc(C(=O)c2ccccc2)cc1 (centres unmarked) [Composé de l'exemple 15, N-[4'-(2,4-Dioxo-thiazolidin-5-ylmethyl)-biphenyl-3-ylmethyl]-N-methyl-4-(1-phenyl-methanoyl)-benzamide]
19%		76.7%	CN(Cc1cccc(-c2ccc(CC3SC(=O)NC3=O)cc2)c1)C(=O)c1ccc(S(C)(=O)=O)cc1 (centres unmarked) [Composé de l'exemple 14, N-[4'-(2,4-Dioxo-thiazolidin-5-ylmethyl)-biphenyl-3-ylmethyl]-4-methanesulfonyl-N-methyl-benzamide]
-3.9%		108%	CN(C)c1ccc(NC(=O)N(C)c2cccc(-c3ccc(CC4SC(=O)NC4=O)cc3)c2)cc1 (centres unmarked) [Composé de l'exemple 22, 3-(4-Dimethylamino-phenyl)-1-[4'-(2,4-dioxo-thiazolidin-5-ylmethyl)-biphenyl-3-yl]-1-methyl-urée]
22.9%	> 50000 nM	93.3%	COCCOCOc1ccc2cc(C(=O)N(C)Cc3cccc(-c4ccc(CC5SC(=O)NC5=O)cc4)c3)ccc2c1 (centres unmarked) [Composé de l'exemple 16, 6-(2-Methoxy-ethoxymethoxy)-N-[4'-(2,4-dioxo-thiazolidin-5-ylmethyl)-biphenyl-3-ylmethyl]-N-methyl-naphthalene-2-carboxamide]
13.7%			COC(=O)CCCCCCCCC(=O)N(C)Cc1cccc(-c2ccc(CC3SC(=O)NC3=O)cc2)c1 (centres unmarked) [Composé de l'exemple 2, 9-{[4'-(2,4-Dioxo-thiazolidin-5-ylmethyl)-biphenyl-3-ylmethyl]-methyl-carbamoyl}-nonanoatede méthyle]
33.6%		97.2%	CN(Cc1cccc(-c2ccc(CC3SC(=O)NC3=O)cc2)c1)C(=O)c1cccn1C (centres unmarked) [Composé de l'exemple 8, N-[4'-(2,4-dioxo-thiazolidin-5-ylmethyl)-biphenyl-3-ylmethyl]-N-methyl-1-Methyl-1H-pyrrole-2-carboxamide]
100%	> 50000 nM	102%	CCO[C@@H](Cc1ccc(-c2cccc(CN(C)C(=O)c3ccc(-c4ccccc4)cc3)c2)cc1)C(=O)O [Composé de l'exemple 19, Acide (S)-3-(3'-{[(1-Biphenyl-4-yl-methanoyl)-methyl-amino]-methyl}-biphenyl-4-yl)-2-ethoxy-propionique]
39.8%	> 50000 nM		CN(Cc1cccc(-c2ccc(CC3SC(=O)NC3=O)cc2)c1)C(=O)CCC1CCCC1 (centres unmarked) [Composé de l'exemple 4, 3-Cyclopentyl-N-[4'-(2,4-dioxo-thiazolidin-5-ylmethyl)-biphenyl-3-ylmethyl]-N-methyl-propionamide]
13.4%	> 50000 nM	112%	CN(Cc1cccc(-c2ccc(CC3SC(=O)NC3=O)cc2)c1)C(=O)c1ccc(N(C)C)c2ccccc12 (centres unmarked) [Composé de l'exemple 13, 4-Dimethylamino-N-[4'-(2,4-dioxo-thiazolidin-5-ylmethyl)-biphenyl-3-ylmethyl]-N-methyl-naphthalene-1-carboxamide]
41.9%	> 50000 nM	114%	CCO[C@@H](Cc1ccc(-c2cccc(CN(C)C(=O)CCCCC(=O)c3ccccc3)c2)cc1)C(=O)O [Composé de l'exemple 20, Acide (S)-2-Ethoxy-3-(3'-{[methyl-(6-oxo-6-phenyl-hexanoyl)-amino]-methyl}-biphenyl-4-yl)-propionique]
12.3%	> 50000 nM	168%	CN(Cc1cccc(-c2ccc(CC3SC(=O)NC3=O)cc2)c1)C(=O)CCCCC(=O)c1ccccc1 (centres unmarked) [Composé de l'exemple 12, N-[4'-(2,4-dioxo-thiazolidin-5-ylmethyl)-biphenyl-3-ylmethyl]-N-methyl-6-oxo-6-phenyl-hexanamide]
4.3%		106%	CN(Cc1cccc(-c2ccc(CC3SC(=O)NC3=O)cc2)c1)C(=O)C12CC3CC(CC(C3)C1)C2 (centres unmarked) [Composé de l'exemple 9, N-[4'-(2,4-dioxo-thiazolidin-5-ylmethyl)-biphenyl-3-ylmethyl]-N-methyl-adamantane-1-carboxamide]
15.1%	> 50000 nM	96.1%	CN(Cc1cccc(-c2ccc(CC3SC(=O)NC3=O)cc2)c1)C(=O)c1ccc2cc(O)ccc2c1 (centres unmarked) [Composé de l'exemple 17, 6-Hydroxy-N-[4'-(2,4-dioxo-thiazolidin-5-ylmethyl)-biphenyl-3-ylmethyl]-N-methyl-naphthalene-2-carboxamide]
